Test results: US20250388756A1, “NOVEL FLUORESCENT COMPOUND, AND LIPID BILAYER DYEING METHOD AND ENDOCYTOSIS DETECTION METHOD USING SAID COMPOUND” (DOJINDO LABORATORIES, priority 2020, published 2025)

Assays:
HeLa cells [1] = experiment: Cell staining test (confocal laser microscope); type: cell-based; conditions: FIG. 8
Experimental: HeLa cells were seeded onto μ-slide 8 well plates (ibidi) and cultured overnight in an incubator (37° C., 5% CO2, MEM medium (containing 10% fetal bovine serum and 1% penicillin/streptomycin)).

HeLa cells [2] = experiment: Endosome staining test (confocal laser microscope); type: cell-based; conditions: endosomes enlarged by wortmannin 100 nM, 30 minutes at 37° C., FIG. 9
Experimental: HeLa cells were seeded on μ-slide 8 well plates (ibidi) and cultured overnight in an incubator (37° C., 5% CO2 presence, MEM medium (containing 10% fetal bovine serum and 1% penicillin/streptomycin)). The medium was removed and wortmannin (100 nM: a PI-3 kinase inhibitor that hypertrophies early endosomes) diluted in MEM medium Various fluorescent compounds (Compound (3), pHrodo Dex (Thermofisher), FM1-43 (Molecular Probe)) diluted with MEM medium were added and incubated for 30 minutes at 37° C. The supernatant was removed, and the cells were incubated at 37° C. for 30 minutes. The supernatant was removed, replaced with MEM medium and observed with a confocal laser microscope. In addition, instead of adding fluorescent compounds, the same experiment was performed using HeLa cells expressing Rab5-RFP (cDNA encoding a fusion protein in which a fluorescent protein is fused to an endosomal membrane-specific protein) before addition of wortmannin. The same experiments were also performed on the control group (CTRL) without adding wortmannin.

[3] = Effect of pH on fluorescence intensity; type: physicochemical; conditions: 1 μmol/L in 1:1 mixture of buffer (pH 7.4, 6.5, 4) and DMSO; FIG. 7
Experimental: Compound (3) was added to a 1:1 mixture of PBS (pH 7.4), Tris-HCl buffer (pH 6.5), phthalate buffer (pH 4) and DMSO to a final concentration of 1 μmol/L and the fluorescence spectrum was measured.

O=C1c2ccc3c4cccc5cccc(c6ccc(c2c36)C(=O)N1CCCS(=O)(=O)O)c54 [Compound (1)]
localisation of fluorescent compound after leaving overnight (retention in cell membrane) (HeLa cells [1]): remained in the cell membrane

CCCCCN1C(=O)c2ccc3c4cccc5c(N6CCN(CCCS(=O)(=O)O)CC6)ccc(c6ccc(c2c36)C1=O)c54 [Compound (2)]
localisation of fluorescent compound after leaving overnight (retention in cell membrane) (HeLa cells [1]): remained in the cell membrane

CCCCCN1C(=O)c2cccc3c(N4CCN(CCCS(=O)(=O)O)CC4)ccc(c23)C1=O [Compound (3)]
staining of endosomes (membrane versus contents) (HeLa cells [2]): only the endosomal membrane was specifically stained
change of fluorescence intensity with pH [3]: marked increase in fluorescence intensity was observed with decreasing pH
